Data: US20080153800A1, “NOVEL CRYSTALLINE COMPOUND” (AstraZeneca AB, priority 2006, published 2008)

What was measured:
[1] = Conversion of the crystalline form in aqueous media; format: physicochemical
Description: International patent application PCT/GB2006/002471 (WO2007/007041) discloses the Agent in 2 different crystalline forms (Example 39k). […] This form will hereinafter be referred to as Form A′. The preparation of Form A is also described in the Example hereinafter.
This form of the Agent will hereinafter be referred to as Form B.

[2] = Competitive slurries of Form A and Form B in a range of solvents; format: physicochemical
Description: Form B also has a much higher melting endotherm.

| conversion to other forms in aqueous media [1] | relative stability of crystalline forms in competitive slurries [2] | SMILES |
| --- | --- | --- |
| convert to the amorphous form |  | CC(C)Oc1cc(Oc2cnc(C(=O)N3CCC3)cn2)cc(C(=O)Nc2cc[nH]n2)c1 [Form A, 3-{[5-(Azetidin-1-ylcarbonyl)pyrazin-2-yl]oxy}-5-[(1-methylethyl)oxy]-N-1H-pyrazol-3-ylbenzamide] |
| convert to the amorphous form |  | CC(C)Oc1cc(Oc2cnc(C(=O)N3CCC3)cn2)cc(C(=O)Nc2cc[nH]n2)c1 [Form A′, 3-{[5-(azetidin-1-ylcarbonyl)pyrazin-2-yl]oxy}-5-[(1-methylethyl)oxy]-N-1H-pyrazol-3-ylbenzamide] |

| SMILES | conversion to other forms in aqueous media [1] | relative stability of crystalline forms in competitive slurries [2] |
| --- | --- | --- |
| CC(C)Oc1cc(Oc2cnc(C(=O)N3CCC3)cn2)cc(C(=O)Nc2cc[nH]n2)c1 [Form B, 3-{[5-(azetidin-1-ylcarbonyl)pyrazin-2-yl]oxy}-5-[(1-methylethyl)oxy]-N-1H-pyrazol-3-ylbenzamide] | does not significantly convert to other forms | most stable form |
